63 compounds from patent publication US20060252807A1, “Novel ortho-terphenyl inhibitors of p38 kinase and methods of treating inflammatory disorders” (Kalypsys, Inc., priority 2005, published 2006) can be followed below.

One may read the IC50 as the midpoint of a concentration-inhibition curve. High values mean a need for much substance, low ones inhibition by little substance.

T1 sequence (Q16539 whole entry): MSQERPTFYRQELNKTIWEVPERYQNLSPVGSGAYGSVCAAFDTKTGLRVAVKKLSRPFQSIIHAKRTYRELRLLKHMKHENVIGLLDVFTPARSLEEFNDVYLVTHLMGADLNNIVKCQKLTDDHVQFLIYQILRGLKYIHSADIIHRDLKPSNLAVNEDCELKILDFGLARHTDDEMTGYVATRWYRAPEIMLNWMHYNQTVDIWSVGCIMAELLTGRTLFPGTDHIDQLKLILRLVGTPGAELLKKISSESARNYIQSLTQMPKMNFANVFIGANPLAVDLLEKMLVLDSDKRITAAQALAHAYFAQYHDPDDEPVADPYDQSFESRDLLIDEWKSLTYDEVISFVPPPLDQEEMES

The first assay has as its target T1, active p38 alpha enzyme (Upstate Biotechnology) (Homo sapiens, UniProt Q16539).
T1 construct: purchased Upstate Biotechnology
The experiment in a line: p38α biochemical assay (ATP turnover, luminescent detection, Cambrex PKlight). As to conditions: p38α biochemical assay, Table 1 Biological Activity. The method, boiled down:
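Measures total ATP turnover by luminescence after human p38α phosphorylates full MapkapK2 protein. Final ATP is 1.4 uM, and incubation runs 2 hours at 30C. The buffer includes 100 mM MgCl2, 4 mM CaCl2 and 1 mg/ml BSA.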
Consider `Cc1nc(-c2ccc(F)cc2)c(-c2nc(C(=O)NCc3ccncc3)cs2)s1` [Example 57, 4′-(4-Fluoro-phenyl)-2′-methyl-|2,5′|bithiazolyl-4-carboxylic acid (pyridin-4-ylmethyl)-amide], for which the half-inhibitory concentration (IC50) was at most 1000 nM.

For the compound `Cc1cc(C(=O)NCc2onc(-c3ccc(F)cc3)c2-c2nc(C(=O)NC(C)C)cs2)n[nH]1` [Example 591], the IC50 was over 1000 nM.

Turning to `CNC(=O)n1ccc(-c2c(-c3ccc(Cl)cc3)noc2C)n1` [Example 3, 3-|3-(4-Chloro-phenyl)-5-methyl-isoxazol-4-yl|-pyrazole-1-carboxylic acid methylamide], the IC50 is over 1000 nM.

Compound `CC(C)NC(=O)c1csc(-c2oc(CN3CCN(C(=O)c4ccc(F)cc4Cl)CC3)nc2-c2ccc(F)cc2)n1` [Example 436] came in with a half-inhibitory concentration (IC50) of over 1000 nM.

`CC(C)NC(=O)c1csc(-c2oc(CNC(=O)c3ccccc3O)nc2-c2ccc(F)cc2)n1` [Example 125] came in with a 50% inhibitory concentration (IC50) of over 1000 nM.

The compound `CC(C)NC(=O)c1csc(-c2oc(CN3CCN(C(=O)CC#N)CC3)nc2-c2ccc(F)cc2)n1` [Example 337] gave an IC50 of at most 1000 nM.

With `CC(C)NC(=O)c1csc(-c2oc(CN3CCN(C(=O)C4=CCCC4)CC3)nc2-c2ccc(F)cc2)n1` [Example 344], the half-inhibitory concentration (IC50) was over 1000 nM.

Compound `CC(C)NC(=O)c1csc(-c2oc(CNC(=O)CCc3ccccc3O)nc2-c2ccc(F)cc2)n1` [Example 181] registered an IC50 of at most 1000 nM.

`CC(C)Cc1ccc(C(C)C(=O)N2CCN(Cc3nc(-c4ccc(F)cc4)c(-c4nc(C(=O)NC(C)C)cs4)o3)CC2)cc1` (stereo not drawn) [Example 517]: the 50% inhibitory concentration (IC50) was at most 1000 nM.

The compound `CC(C)NC(=O)c1csc(-c2c(-c3ccc(F)cc3)noc2CNC(=O)c2ccc(C(C)(C)C)cc2)n1` [Example 684] had an IC50 of over 1000 nM.

`Cc1ccc(C(=O)NCc2nc(-c3ccc(F)cc3)c(-c3nc(C(=O)NC(C)C)cs3)o2)cc1` [Example 123] showed an IC50 of over 1000 nM.

Take `CC(C)NC(=O)c1csc(-c2oc(CNC(=O)c3c(F)c(F)c(F)c(F)c3F)nc2-c2ccc(F)cc2)n1` [Example 282]: the IC50 was at most 1000 nM.

Consider `CC(C)NC(=O)c1csc(-c2oc(CN3CCN(C(=O)/C=C/c4ccc(Cl)cc4)CC3)nc2-c2ccc(F)cc2)n1` [Example 467], for which the IC50 is over 1000 nM.

The compound `COc1ccc(C(=O)NCc2nc(-c3ccc(F)cc3)c(-c3nc(C(=O)NC(C)C)cs3)o2)cc1` [Example 141] registered an IC50 of over 1000 nM.

The compound `CC(C)NC(=O)c1csc(-c2oc(CN3CCN(C(=O)c4ccncc4)CC3)nc2-c2ccc(F)cc2)n1` [Example 350] registered a half-inhibitory concentration (IC50) of at most 1000 nM.

`CC(C)NC(=O)c1csc(-c2c(-c3ccc(F)cc3)noc2CNC(=O)C2CCc3ccccc32)n1` (stereo not drawn) [Example 639] showed an IC50 of over 1000 nM.

For `CC(C)NC(=O)c1csc(-c2oc(CNC(=O)c3ccc(F)cc3)nc2-c2ccc(F)cc2)n1` [Example 126], the IC50 is over 1000 nM.

`CC(C)NC(=O)c1csc(-c2oc(CN3CCN(C(=O)c4cc(Br)ccc4Cl)CC3)nc2-c2ccc(F)cc2)n1` [Example 557] returned a concentration for half-maximal inhibition (IC50) of over 1000 nM.

On to `CC(C)NC(=O)c1csc(-c2oc(CNC(=O)c3cccc(F)c3)nc2-c2ccc(F)cc2)n1` [Example 127], for which the IC50 was over 1000 nM.

On to `CC(C)NC(=O)c1csc(-c2oc(CN3CCN(C(=O)CCc4ccccc4O)CC3)nc2-c2ccc(F)cc2)n1` [Example 418], for which the IC50 was at most 1000 nM.

Take `CCN(CC)c1ccc(C(=O)NCc2nc(-c3ccc(F)cc3)c(-c3nc(C(=O)NC(C)C)cs3)o2)cc1` [Example 260]: the half-inhibitory concentration (IC50) was at most 1000 nM.

`CC(C)NC(=O)c1csc(-c2oc(CN3CCN(C(=O)c4ccc(C(C)(C)C)cc4)CC3)nc2-c2ccc(F)cc2)n1` [Example 446] displayed an IC50 of over 1000 nM.

Turning to `CC(C)CC(=O)N1CCN(Cc2nc(-c3ccc(F)cc3)c(-c3nc(C(=O)NC(C)C)cs3)o2)CC1` [Example 341], the half-maximal inhibitory concentration (IC50) is over 1000 nM.

On to `CC(C)NC(=O)c1csc(-c2c(-c3ccc(F)cc3)noc2CNC(=O)/C=C/c2ccc(Cl)cc2)n1` [Example 705], for which the IC50 is over 1000 nM.

Compound `CC(C)NC(=O)c1csc(-c2oc(CN3CCN(C(=O)C4CN(C(=O)OC(C)(C)C)CCN4)CC3)nc2-c2ccc(F)cc2)n1` (stereo not drawn) [Example 551] returned an IC50 of over 1000 nM.

Take `CC(C)NC(=O)c1csc(-c2oc(CNC(=O)c3ccnc(Cl)c3)nc2-c2ccc(F)cc2)n1` [Example 154]: the IC50 was over 1000 nM.

Staying with this assay, now noted: p38α kinase; Table 1 Biological Activity.
The compound `Cc1cnc(CNC(=O)c2csc(-c3c(-c4ccc(F)cc4)n[nH]c3C3CCNCC3)n2)cn1` [Example 2079] registered a concentration for half-maximal inhibition (IC50) of over 1000 nM.

`O=C(NCCCN1CCOCC1)c1csc(-c2c(-c3ccc(F)cc3)n[nH]c2C2CCNCC2)n1` [Example 2114] came in with an IC50 of over 1000 nM.

With `CCN(CC)CCCC(C)NC(=O)c1csc(-c2c(-c3ccc(F)cc3)n[nH]c2C2CCNCC2)n1` (stereo not drawn) [Example 2130], the IC50 is over 1000 nM.

`Cc1cccc(N2CCN(C(=O)c3csc(-c4sc(C)nc4-c4ccc(F)cc4)n3)CC2C)c1` (stereo not drawn) [Example 1915] yielded an IC50 of at most 1000 nM.

In the case of `Cc1nc(-c2ccc(F)cc2)c(-c2nc(C(=O)NCc3ccccn3)cs2)s1` [Example 1741], the IC50 was at most 1000 nM.

`Cc1nc(-c2ccc(F)cc2)c(-c2nc(C(=O)N3CCCN(Cc4ccccc4)CC3)cs2)s1` [Example 1901] had an IC50 of over 1000 nM.

In the case of `CC(C)CC(NC(=O)OC(C)(C)C)C(=O)N1CCC(c2[nH]nc(-c3ccc(F)cc3)c2-c2nc(C(=O)NC(C)C)cs2)CC1` (stereo not drawn) [Example 1043], the concentration for half-maximal inhibition (IC50) was at most 1000 nM.

As to `CC(C)NC(=O)c1csc(-c2c(-c3ccc(F)cc3)n[nH]c2C2CCN(C(=O)CCc3ccccc3Br)CC2)n1` [Example 1023], the IC50 is over 1000 nM.

As to `CC(C)NC(=O)c1csc(-c2c(-c3ccc(F)cc3)n[nH]c2C2CCN(C(=O)C3CCCCC3)CC2)n1` [Example 832], the IC50 is over 1000 nM.

Compound `CC(C)NC(=O)c1csc(-c2oc(CN3C[C@@H](C)N[C@@H](C)C3)nc2-c2ccc(F)cc2)n1` [Example 1210] yielded an IC50 of over 1000 nM.

`CC(C)NC(=O)c1csc(-c2c(-c3ccc(F)cc3)noc2CN2CCC(O)(O)CC2)n1` [Example 1561] came in with an IC50 of over 1000 nM.

As to `CCCCN(C)C(=O)c1csc(-c2sc(C)nc2-c2ccc(F)cc2)n1` [Example 1844], the half-maximal inhibitory concentration (IC50) was over 1000 nM.

As to `Cc1nc(-c2ccc(F)cc2)c(-c2nc(C(=O)NC(C)CO)cs2)s1` (stereo not drawn) [Example 1719], the IC50 is at most 1000 nM.

In turn, `CCOC(=O)CC(C)NC(=O)c1csc(-c2sc(C)nc2-c2ccc(F)cc2)n1` (stereo not drawn) [Example 1766] returned a concentration for half-maximal inhibition (IC50) of at most 1000 nM.

In the case of `CC(C)NC(=O)c1csc(-c2oc(CN3CCN(c4ccccc4F)CC3)nc2-c2ccc(F)cc2)n1` [Example 1253], the IC50 was over 1000 nM.

Regarding `COCCNC(=O)c1csc(-c2sc(C)nc2-c2ccc(F)cc2)n1` [Example 1720], the IC50 is over 1000 nM.

In turn, `Cc1nc(-c2ccc(F)cc2)c(-c2nc(C(=O)NCCNC(=O)OC(C)(C)C)cs2)s1` [Example 1808] had an IC50 of at most 1000 nM.

As to `Cc1nc(-c2ccc(F)cc2)c(-c2nc(C(=O)N3CCN(c4ccccn4)CC3)cs2)s1` [Example 1893], the half-inhibitory concentration (IC50) was over 1000 nM.

The compound `CC(C)NC(=O)c1csc(-c2c(-c3ccc(F)cc3)noc2CNCCNC(=O)OC(C)(C)C)n1` [Example 1484] had a half-maximal inhibitory concentration (IC50) of over 1000 nM.

Take `CCOC(=O)C1CCCN(C(=O)c2csc(-c3sc(C)nc3-c3ccc(F)cc3)n2)C1` (stereo not drawn) [Example 1888]: the IC50 was over 1000 nM.

Turning to `CC(C)NC(=O)c1csc(-c2c(-c3ccc(F)cc3)noc2CN2CCN(c3cccc(C(F)(F)F)c3)CC2)n1` [Example 1623], the half-inhibitory concentration (IC50) was over 1000 nM.

With `COc1ccc(CCN(C)Cc2nc(-c3ccc(F)cc3)c(-c3nc(C(=O)NC(C)C)cs3)o2)cc1OC` [Example 1272], the IC50 is over 1000 nM.

The compound `CC(C)NC(=O)c1csc(-c2oc(CNCCc3ccc4c(c3)OCO4)nc2-c2ccc(F)cc2)n1` [Example 1178] came in with a half-maximal inhibitory concentration (IC50) of over 1000 nM.

In turn, `Cc1ccc(C)c(NC(=O)c2csc(-c3sc(C)nc3-c3ccc(F)cc3)n2)c1` [Example 1965] had an IC50 of over 1000 nM.

On to `COc1ccc(OC)c(C(=O)N2CCC(c3[nH]nc(-c4ccc(F)cc4)c3-c3nc(C(=O)NC(C)C)cs3)CC2)c1` [Example 938], for which the half-maximal inhibitory concentration (IC50) was over 1000 nM.

Take `Cc1nc(-c2ccc(F)cc2)c(-c2nc(C(=O)N3CCC(O)(c4ccc(Cl)cc4)CC3)cs2)s1` [Example 1940]: the IC50 is over 1000 nM.

`Cc1ccc(C)c(CNC(=O)c2csc(-c3c(-c4ccc(F)cc4)n[nH]c3C3CCNCC3)n2)c1` [Example 2091] displayed a 50% inhibitory concentration (IC50) of over 1000 nM.

As for `CCOC(=O)N1CCN(C(=O)c2csc(-c3sc(C)nc3-c3ccc(F)cc3)n2)CC1` [Example 1889], the 50% inhibitory concentration (IC50) was over 1000 nM.

`O=C(NCc1cccc(C(F)(F)F)c1)c1csc(-c2c(-c3ccc(F)cc3)n[nH]c2C2CCNCC2)n1` [Example 2144] showed an IC50 of over 1000 nM.

In the case of `Cc1nc(-c2ccc(F)cc2)c(-c2nc(C(=O)N3CCCC3CO)cs2)s1` (stereo not drawn) [Example 1850], the IC50 is at most 1000 nM.

As for `Cc1nc(-c2ccc(F)cc2)c(-c2nc(C(=O)NC3CCN(Cc4ccccc4)C3)cs2)s1` (stereo not drawn) [Example 1822], the IC50 was at most 1000 nM.

On to `CC(C)NC(=O)c1csc(-c2c(-c3ccc(F)cc3)noc2CNCc2ccc(Cl)cc2)n1` [Example 1463], for which the concentration for half-maximal inhibition (IC50) is over 1000 nM.

In turn, `Cc1ccc(S(=O)(=O)NCCNCc2onc(-c3ccc(F)cc3)c2-c2nc(C(=O)NC(C)C)cs2)cc1` [Example 1507] gave an IC50 of over 1000 nM.

Turning to `Cc1nc(-c2ccc(F)cc2)c(-c2nc(C(=O)NCC3(O)CCCCC3)cs2)s1` [Example 1812], the IC50 was at most 1000 nM.

On to `CC(C)NC(=O)c1csc(-c2oc(CNN3CCOCC3)nc2-c2ccc(F)cc2)n1` [Example 1082], for which the IC50 is over 1000 nM.

Compound `CC(CCc1ccccc1)NC(=O)c1csc(-c2c(-c3ccc(F)cc3)n[nH]c2C2CCNCC2)n1` (stereo not drawn) [Example 2117] showed an IC50 of over 1000 nM.

`COc1ccc(NCc2onc(-c3ccc(F)cc3)c2-c2nc(C(=O)NC(C)C)cs2)c(C)c1` [Example 1663]: the IC50 is over 1000 nM.
